Source: publication PMC9603521, “WYBQ-4: a New Bactericidal Agent against Methicillin-Resistant Staphylococcus aureus” (Microbiology Spectrum, 2022)
In brackets after ≈: the same amount, converted by molar mass. Several values for one entry are separate records, joined by “and”; a condition that tells them apart may be missing. Equal entries are not always repeated.

Experiments:
[1] = test system: methicillin-susceptible Staphylococcus epidermidis (MSSE) 35984; assay: MIC by broth microdilution (CLSI); type: cell-based
MSSA ATCC 29213 = assay: Postantibiotic effect (viable plate count); type: cell-based, Staphylococcus aureus; conditions: 1 h exposure
Method: The postantibiotic effect (PAE) of WYBQ-4 against MSSA 29213 was determined in MHB agar using the viable plate count method ([39]). […] After incubation at 37°C for 1 h, WYBQ-4 was removed by centrifugation and washing with phosphate-buffered saline (PBS). Subsequently, fresh MHB medium was added to resuspend the bacteria, and the mixture was incubated at 37°C with shaking. The number of colonies was counted by taking 10 μL of bacteria at 1-h intervals and applying them to BHI agar plates after appropriate dilution. PAE duration was calculated as follows: time (h) for bacteria to return to log-phase growth after drug treatment – time (h) for the control group to return to log-phase growth ([40]).

MRSA USA300 = assay: TEM analysis of cell morphology / division defects; type: cell-based, Staphylococcus aureus; conditions: 4 μg/mL (1/2× MIC), 3 h
Method: MRSA USA300 was cultured overnight, diluted (1:100) into 20 mL of Trypticase soy broth (TSB) medium, and incubated at 30°C with shaking until the optical density at 600 nm (OD600) reached 0.3. […] Bacterial cells treated with 4 μg/mL ceftaroline fosamil (1/2 of their respective MIC) served as a control group. Untreated S. aureus served as a negative control. Bacteria were collected and washed in PBS and resuspended in 4% (vol/vol) glutaraldehyde fixation overnight. The fixed samples were further processed, and morphological changes in S. aureus were observed by TEM (JSM-7900F; JEOL, Japan).

PBP2a = PBP2a (Staphylococcus aureus, UniProt P07944); assay: PBP2a deacylation rate, BOCILLIN FL as reporter; type: biochemical, MRSA; conditions: deacylation of PBP2a
PBP2a, sequence (P07944 whole entry): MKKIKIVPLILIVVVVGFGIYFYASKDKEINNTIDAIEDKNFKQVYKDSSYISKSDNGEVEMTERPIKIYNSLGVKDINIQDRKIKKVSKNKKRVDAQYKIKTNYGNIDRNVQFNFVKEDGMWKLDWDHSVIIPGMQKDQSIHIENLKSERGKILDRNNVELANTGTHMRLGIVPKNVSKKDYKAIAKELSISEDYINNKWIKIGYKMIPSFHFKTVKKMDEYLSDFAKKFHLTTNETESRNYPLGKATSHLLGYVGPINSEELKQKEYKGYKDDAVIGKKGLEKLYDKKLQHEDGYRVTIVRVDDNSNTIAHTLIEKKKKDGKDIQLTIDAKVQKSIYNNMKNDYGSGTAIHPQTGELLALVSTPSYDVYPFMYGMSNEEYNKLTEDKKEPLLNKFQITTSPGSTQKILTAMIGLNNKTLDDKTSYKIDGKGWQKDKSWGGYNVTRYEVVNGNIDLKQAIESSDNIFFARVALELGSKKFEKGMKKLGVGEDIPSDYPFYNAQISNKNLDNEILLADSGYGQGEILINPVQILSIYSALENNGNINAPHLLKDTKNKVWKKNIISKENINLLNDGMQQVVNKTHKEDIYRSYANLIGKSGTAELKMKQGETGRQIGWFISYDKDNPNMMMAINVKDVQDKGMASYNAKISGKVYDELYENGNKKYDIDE
Method: Α = A + ∆ε E (k∗ ∕ (k∗ + k∗)(1 − exp (−(k∗ + k∗)t)) + k N ∆ε Ε t (2)
Where kn* is the pseudo-first-order rate constant for acylation by nitrocefin at the concentration (N0) employed (0.1 mM), ki* the pseudo-first-order rate constant for the reaction of PBP2a with the WYBQ-4, E0 the initial enzyme concentration (2.5 µM), and k0 the second-order rate constant of nonspecific nitrocefin hydrolysis. Second-order rate constants (ki) for acylation were calculated from a linear least-squares fit to a plot of the apparent first-order rate constants (ki*) against the concentration of WYBQ-4. All plots were linear for the concentrations of WYBQ-4 used.
Determination of dissociation equilibrium constants (Ks) of WYBQ-4 and PBP2a The dissociation equilibrium constant (Ks) of PBP2a with WYBQ-4 were determined by the BOCILLIN method (2), as previously described. […] Samples (30 μL) were loaded onto a 10% SDS-polyacrylamide gel, which was developed and then observed using a fluorescence imager to calculate the grayscale curve. […]
The deacylation rate constants for wild-type PBP2a were determined using BOCILLIN FL as a reporter molecule. […]
The mixture was diluted 5 times with buffer and incubated at room temperature for different time intervals. […] Grayscale analysis was performed by imageJ and the rate constant k3 for the deacylation reaction of WYBQ-4 with PBP2a was determined based on eqn (3): […]

C#CCO[C@@]1(NC(=O)CSc2cccc(C)c2)C(=O)N2C(C(=O)O)=C(CSc3nnnn3C)CSC21 (stereo partly shown) [WYBQ-4]
MIC [1]: 0.5 µg/mL (≈ 0.915 µM) | PAE (MSSA ATCC 29213; 2× MIC): 1.5 h | PAE (MSSA ATCC 29213; 8× MIC): 3.5 h | Asymmetry of bacterial division (number of cells) (MRSA USA300): 38 | Distortion of septa (number of cells) (MRSA USA300): 27 | Percentage of defective cells (asymmetry of bacterial division) (MRSA USA300): 40.9 b % | Percentage of defective cells (distortion of septa) (MRSA USA300): 29.0 a % | Percentage of defective cells (thin cell walls) (MRSA USA300): 63.4% and 63.4 c % | Thin cell walls (number of cells) (MRSA USA300): 59 | k3 (PBP2a): 11 ± 1.32 s^–1 × 10^6
